“Also recorded” adds a separate entry of the source. Like-named read-outs stand apart in the source and are kept apart here.
Key:
[1] = native somatostatin; cited from earlier work
murine IL-4 receptor = settings: cited from earlier work
IL-4 receptor = test: Radiolabeled IL-4 binding after adenovirus-polylysine-DNA transduction of IL-4 receptor; settings: adenovirus-polylysine-DNA conjugates
SSTR2 = settings: cited from earlier work
[2] = tested on: murine gastrin releasing peptide receptor (mGRP-R); test: Radiolabeled bombesin binding after adenovirus-polylysine-mediated transfection of GRPr; settings: AdpL, versus uninfected controls
Description: Next, gene mediated expression of receptors was applied in the context of inducing expression of a receptor that could be targeted with a radiolabeled peptide and thus employed the gene encoding the murine gastrin releasing peptide receptor (mGRP-R). The first technique utilized the methodology of an adenovirus-polylysine-mediated transfection (AdpL) to accomplish transient gene expression of mGRP-R in human lung cancer cells.

mGRPr = test: Binding to murine GRP receptor
[3] = tested on: SKOV3.ip1 tumors expressing mGRPr; test: Biodistribution and pharmacokinetics of radiolabeled bombesin analogue in mice bearing i.p. SKOV3.ip1 tumors infected with AdCMVGRPr; assay type: in vivo, human SKOV3.ip1 tumors in athymic nude mice
Description: All biodistribution studies were performed in female Balb/c athymic nude mice obtained at 4-5 weeks of age from Frederick Research Laboratory (Frederick, Md.). The peptide mIP-Des-Met-bombesin(7-13)NH2 was synthesized using solid phase peptide synthesis at the UAB Comprehensive Cancer Center Peptide Synthesis and Analysis Shared Facility and has been described elsewhere. Mice were injected i.p. with 2×10^7 SKOV3.ip1 human ovarian carcinoma cells. Five days following cell inoculation, mice were injected i.p. with 1×10^9 pfu of a recombinant adenoviral vector expressing mGRPr. Animals were then injected i.p. 48 hours later with 2 μCi of [^125 I]-mIP bombesin. Mice were sacrificed at 0.5, 2, 5, 15, 30 min and 1, 4, 8, 12 and 24 hours following peptide injection (n=4-10/group) and the following organs were dissected: blood, heart, lungs, liver, stomach, small intestine, spleen, kidney, skin, bone, muscle, uterus, peritoneal lining and thyroid. In addition, tumor nodules were removed from each mouse. All organs, and tumors were weighed and the activity counted in a gamma counter. The % ID/g for each tissue was calculated except for the thyroid in which only the % ID was determined.
Descriptive statistics were calculated to examine the distribution and variation of time concentration of radiolabeled antibody and peptide, and tissue to blood ratio data (means and standard deviations). Means at each specific time point were calculated from multiple mice data for both tissue concentration and tissue to blood ratios. Mean concentration data (% ID/g) over time was used for pharmacokinetical modeling. The pharmacokinetical parameters were estimated by using the NLIN procedure of Statistical Analysis System programs. Selection of models was based on comparison of Akaike's Information Criterion, the minimization of the model's mean squared error and standard error of the estimated model parameters, and the graphical diagnostics of the model fit.
Four different pharmacokinetic models, including one and two compartment elimination models along with one and two-compartment models with an absorption phase were required to fit the time concentration curves for the peptide. […] For each of these, the elimination t1/2 was calculated along with Cmax and AUC. A one-compartment model with an absorption phase was determined to be the best model for abdominal lining and muscle data. For each of these, the elimination t1/2 values for each compartment were calculated along with Cmax and AUC. A two-compartment model with an absorption phase was the best model for blood, kidney, and small intestine data. For each of these, elimination t1/2 values for each compartment and the absorption t1/2 value was calculated along with Cmax, Tmax and AUC.

mGRPr expressing cells = test: Internalization and intracellular retention in mGRPr expressing cells; assay type: cell-based, murine
human IL-4 receptor = settings: murine ligand; cited from earlier work

For `C[C@H](N)C(=O)NCC(=O)N[C@H]1CSSC[C@@H](C(=O)O)NC(=O)[C@H](CO)NC(=O)[C@H]([C@@H](C)O)NC(=O)[C@H](Cc2ccccc2)NC(=O)[C@H]([C@@H](C)O)NC(=O)[C@H](CCCCN)NC(=O)[C@H](Cc2c[nH]c3ccccc23)NC(=O)[C@H](Cc2ccccc2)NC(=O)[C@H](Cc2ccccc2)NC(=O)[C@H](CC(N)=O)NC(=O)[C@H](CCCCN)NC1=O` [Somatostatin], the plasma half-life [1] is given as “minutes”.
For “^125 I-labeled IL-4: ^125 I-labeled IL-4”, the Ka (murine IL-4 receptor; ^125 I-IL-4, transduced COS-7 cells) is given as 10^9 -10^10 M^-1 and the “radiolabeled IL-4 binding to transduced cells” value (IL-4 receptor) is given as “specific binding”.
For human IL-4: human IL-4, the “binding to the murine receptor” value (murine IL-4 receptor; human IL-4) is given as “does not exhibit binding”.
In the case of `C[C@@H](O)[C@@H]1NC(=O)[C@H](CCCCN)NC(=O)[C@@H](Cc2c[nH]c3ccccc23)NC(=O)[C@H](Cc2ccccc2)NC(=O)[C@@H](NC(=O)[C@H](N)Cc2ccccc2)CSSC[C@@H](C(=O)N[C@H](CO)[C@@H](C)O)NC1=O` [Octreotide], the “binding to SSTR2” value (SSTR2) is listed as “binds with high affinity”.
With “^125 I-labeled bombesin: ^125 I-labeled bombesin” the “radiolabeled bombesin binding to transduced cells” value [2] was “specific binding; also recorded: successfully demonstrated”.
In the case of “[^125 I]-mIP-Des-Met^14 -bombesin(7-13)NH2 [[^125 I]-mIP-bombesin]”, the “binding to mGRPr” value (mGRPr) is reported as “high affinity binding”, the “concentration in tumor (highest)” value ([3]; 30 sec after injection, 0.5 min) is reported as 33.6±18.2 % ID/g and the “tumor to blood ratio relative to antibody” value ([3]; 30 sec, versus e21) is reported as 24.8 fold. The “tumor localization at 4 hours post injection versus [^125 I]-Tyr-bombesin” value ([3]; 4 hours post injection) was “much greater”, the concentration in tumor ([3]; 24 hours after injection) was 2.5±2.8 % ID/g and the “tumor to blood ratio relative to antibody” value ([3]; 24 hours, versus e21) was 15.4 fold. It also gave an AUC ([3]; abdominal lining) of 160.9 percent ID × h/g, a Cmax ([3]; abdominal lining) of 47.7 percent ID/g and a t1/2α ([3]; abdominal lining) of 0.1 h. It also gave a t1/2β ([3]; abdominal lining) of 6.5 h, an AUC ([3]; blood) of 8.0 percent ID × h/g and a Cmax ([3]; blood) of 1.5 percent ID/g. For the same compound, the Tmax ([3]; blood) was 0.6 h, the t1/2α ([3]; blood) was 0.8 h and the t1/2β ([3]; blood) was 6.7 h. For the same compound, the AUC ([3]; bone) was 12.8 percent ID × h/g, the Cmax ([3]; bone) was 1.1 percent ID/g and the t1/2β ([3]; bone) was 7.9 h. The AUC ([3]; heart) was 8.3 percent ID × h/g, the Cmax ([3]; heart) was 0.9 percent ID/g and the t1/2β ([3]; heart) was 6.6 h. It also gave an AUC ([3]; kidney) of 44.8 percent ID × h/g, a Cmax ([3]; kidney) of 15.3 percent ID/g and a Tmax ([3]; kidney) of 0.5 h. For the same compound, the t1/2α ([3]; kidney) was 0.4 h, the t1/2β ([3]; kidney) was 4.7 h and the “tumor to blood ratio” value ([3]; level after drop from initial peak and rise) was “about 50”. It also gave an AUC ([3]; liver) of 49.2 percent ID × h/g, a Cmax ([3]; liver) of 9.8 percent ID/g and a t1/2β ([3]; liver) of 3.5 h. It also gave an AUC ([3]; lung) of 7.6 percent ID × h/g, a Cmax ([3]; lung) of 1.3 percent ID/g and a Tmax ([3]; lung) of 0.05 h. For the same compound, the t1/2β ([3]; lung) was 4.1 h, the AUC ([3]; muscle) was 12.4 percent ID × h/g and the Cmax ([3]; muscle) was 3.6 percent ID/g. It also gave a t1/2α ([3]; muscle) of 0.6 h, a t1/2β ([3]; muscle) of 7.7 h and an AUC ([3]; skin) of 5.9 percent ID × h/g. For the same compound, the Cmax ([3]; skin) was 1.0 percent ID/g, the Tmax ([3]; skin) was 0.4 h and the t1/2β ([3]; skin) was 3.7 h. It also gave an AUC ([3]; small intestine) of 112 percent ID × h/g, a Cmax ([3]; small intestine) of 41.7 percent ID/g and a Tmax ([3]; small intestine) of 0.3 h. It also gave a t1/2α ([3]; small intestine) of 0.6 h, a t1/2β ([3]; small intestine) of 8.3 h and an AUC ([3]; spleen) of 71.7 percent ID × h/g. For the same compound, the Cmax ([3]; spleen) was 10.9 percent ID/g, the t1/2β ([3]; spleen) was 4.6 h and the AUC ([3]; stomach) was 172.3 percent ID × h/g. The Cmax ([3]; stomach) was 10.2 percent ID/g, the Tmax ([3]; stomach) was 0.05 h and the t1/2β ([3]; stomach) was 11.7 h. For the same compound, the AUC ([3]; tumor) was 193.1 percent ID × h/g, the Cmax ([3]; tumor) was 25.6 percent ID/g and the “t1/2β (clearance half-life)” value ([3]; tumor) was 5.2 h. The AUC ([3]; uterus) was 182.8 percent ID × h/g, the Cmax ([3]; uterus) was 29.2 percent ID/g and the t1/2β ([3]; uterus) was 4.3 h. The “peak tumor to blood ratio, bombesin analogue relative to antibody” value ([3]; versus e21) was 12.6 fold, the “internalization versus [^125 I]-Tyr-bombesin” value (mGRPr expressing cells) was “higher internalization” and the “intracellular retention versus [^125 I]-Tyr-bombesin” value (mGRPr expressing cells) was “longer intracellular retention”. For the same compound, the “intracellular retention versus [^125 I]-Tyr-bombesin” value (mGRPr expressing cells; listed as modified seven amino acid analogue of bombesin) was “longer retention time within cells”.
In the case of “Murine IL-4: glycoprotein with an approximate molecular weight of 19 kD”, the “binding to the human receptor” value (human IL-4 receptor) is listed as “does not exhibit binding”.
